From paper PMC11112094, “MzmL, a novel marine derived N-acyl homoserine lactonase from Mesoflavibacter zeaxanthinifaciens that attenuates Pectobacterium carotovorum subsp. carotovorum virulence” (Frontiers in Microbiology, 2024)

Tested on: T1, MzmL
T1 construct: full-length ORF (304 residues, predicted 16-residue signal peptide MKKLIILLITLSLFVA included in the clone), N-terminal His6 tag kept (pET-28a), E. coli BL21(DE3), Ni-NTA, ~35 kDa
Assay: pH-indicator (bromothymol blue) assay of lactone hydrolysis, OD630, Michaelis-Menten fit
Type: biochemical, Mesoflavibacter zeaxanthinifaciens
Conditions: 2.5 mM MOPS pH 7.1; 25°C in methods, 28°C in table footnote; 5 nM enzyme; read-out: Km (mM)/Mean ± SD
Source text: pH-indicator (bromothymol blue) assay of lactone hydrolysis, OD630, Michaelis-Menten fit on MzmL

Row | Structure (SMILES) | Km
1 | CCCC(=O)CC(=O)N[C@H]1CCOC1=O [3-oxo-C6-HSL] | 0.08 ± 0.06 mM
2 | CCCCCC(=O)N[C@H]1CCOC1=O [C6-HSL] | 0.39 ± 0.11 mM
3 | CCCCCC(=O)CC(=O)N[C@H]1CCOC1=O [3-oxo-C8-HSL] | 0.46 ± 0.21 mM

Now from value to molecule:

Row | Km | Structure (SMILES)
4 | 0.04 ± 0.01 mM | CCCCCCCCCC(=O)N[C@H]1CCOC1=O [C10-HSL]
5 | 0.12 ± 0.03 mM | CCCCCCCC(=O)CC(=O)N[C@H]1CCOC1=O [3-oxo-C10-HSL]
